Laboratory results from patent US20220273659A1, “HETEROCYCLIC COMPOUNDS AS KINASE INHIBITORS” (NUVATION BIO INC., priority 2019, published 2022).

Assays:
[1] = target: T1, CDK6 (Homo sapiens, UniProt Q00534); assay: In vitro kinase inhibition IC50, luminescence (ADP Glo), retinoblastoma substrate; type: biochemical; settings: read-out: CDK6/D1 IC50
T1 construct: purchased Invitrogen PR8422B
Procedure: (§1) IC50 values of compounds against CDK4 and CDK6 were determined by luminescence using retinoblastoma as substrate. Kinase assays were performed in kinase buffer (#PV6135, Invitrogen Life Technologies, Grand Island, N.Y.) where total reaction volume was […] in 96-well half area white plates (#3693, Costar). One microliter of 25×test compounds at specific concentrations (e.g., final concentration range: 0.1 nM-200 nM) was mixed with 10 μL of 2.5×kinase (5 nM, CDK4 #PR8064A and CDK6 #PR8422B, Invitrogen) solution and 14 μL of 4× mixed solution with retinoblastoma (1 μM, #12-439, EMD Millipore, Hayward, Calif.) and ATP (25 μM, #V7038, Promega, Madison, Wis.). The plates were covered and incubated for 2H at room temperature. At the end of incubation, 25 μL of stop solution—ADP Glo reagent (#V7002, Promega) was added. After incubation for 45 min at room temperature, 50 μL of detection reagent (##V7002, Promega) was added. Readings were taken at 15 min and 45 min incubation after detection reagent was added in a Synergy Neo Plate reader (BioTek, Winooski, Vt.) at single excitation of 340 nm and Dual emission at 495 nm and 520 nm respectively. The following equations were used in the CDK4 and CDK6 assay data analysis. Percent inhibition (100-% activity) was fitted to the “four-parameter logistic model” in XLfit for determination of IC50 values.
(§2) Percent conversion of enzyme=100−{(RLUNo Drug−No enzyme*100)/RLUNo drug+Enzyme} Equation 1:
(§3) Percent conversion at each data point=100−{(RLUAverage(Drug+enzyme)*100)!RLUNo drug+Enzyme} Equation 2:
(§4) Percent Inhibition=100*(% Conversioneach data point/% ConversionEnzyme) Equation 3: […]

[2] = target: T2, CDK4 (Homo sapiens, UniProt P11802); assay: as above; type: biochemical; settings: read-out: CDK4/D1 IC50
T2 construct: purchased Invitrogen PR8064A
T2 sequence (P11802 whole entry): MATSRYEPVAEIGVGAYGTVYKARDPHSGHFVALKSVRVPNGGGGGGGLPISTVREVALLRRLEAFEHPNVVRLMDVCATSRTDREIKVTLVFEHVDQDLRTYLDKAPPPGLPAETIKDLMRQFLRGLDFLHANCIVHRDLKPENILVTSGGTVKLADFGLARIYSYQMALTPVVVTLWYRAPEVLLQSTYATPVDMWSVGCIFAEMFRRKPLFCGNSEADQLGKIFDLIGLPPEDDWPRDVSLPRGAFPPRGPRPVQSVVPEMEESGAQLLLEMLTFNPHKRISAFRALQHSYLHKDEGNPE
T2 sequence (P24385 whole entry partner): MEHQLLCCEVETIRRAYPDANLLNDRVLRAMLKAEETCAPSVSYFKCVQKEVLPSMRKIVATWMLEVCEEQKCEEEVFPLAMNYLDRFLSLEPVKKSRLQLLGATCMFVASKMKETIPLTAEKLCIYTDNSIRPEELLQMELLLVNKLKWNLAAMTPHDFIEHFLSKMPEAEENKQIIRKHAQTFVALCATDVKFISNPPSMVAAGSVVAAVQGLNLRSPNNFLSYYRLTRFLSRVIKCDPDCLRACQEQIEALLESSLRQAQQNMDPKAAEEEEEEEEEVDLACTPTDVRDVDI
Procedure: as §1, §2, §3, §4

[3] = system: MCF-7 breast adenocarcinoma cells; assay: Cancer cell proliferation assay, single agent (cell viability); type: cell-based; settings: Homo sapiens, MCF7, Table 4; Rb positive; treatment 144 Hr with medium change at 72 Hr; Cell Titer-Glo or resazurin
Procedure: (§5) The effects of test compounds were studied in three breast cancer cell lines of different subtype. The cancer cells (Table 3) were harvested during the logarithmic growth period and counted. Cell concentrations were adjusted to the appropriate number with respective medium and 90 μL cell suspensions were added to 96-well plates. After cells were seeded, the plates were shaken gently to distribute cells evenly and incubated at 37° C., 5% CO2 on day 1.
(§6) Cells were treated with test compounds at 7 to 9 concentrations within a desired concentration range (e.g. 1.1 nM-10 μM) on day 2 by series diluting the test compound stock solution (10 mM in DMSO) with culture medium. Treatment duration was 24 Hr for BT-549 cells and 144 Hr (with a medium change at 72 Hr) for MCF-7 and DU4475 cells. Cell viability was assessed by Cell Titer-Glo® as recommended by Promega (Cat. No.: G7572), or by resazurin assay (Sigma Aldrich, Cat. No.: R7017) post treatment.
(§7) Cell viability data were plotted using GraphPad Prism (GraphPad Software, Inc., San Diego, Calif.). In addition, a nonlinear regression model with a sigmoidal dose response and variable slope within GraphPad Prism was used to calculate the IC50 value of individual test compounds.

[4] = system: DU4475 breast carcinoma cells; assay: as above; type: cell-based; settings: Homo sapiens, DU-4475; Table 4; Rb negative; treatment 144 Hr with medium change at 72 Hr; Cell Titer-Glo or resazurin
Procedure: as §5, §6, §7

T1 sequence (Q00534 whole entry): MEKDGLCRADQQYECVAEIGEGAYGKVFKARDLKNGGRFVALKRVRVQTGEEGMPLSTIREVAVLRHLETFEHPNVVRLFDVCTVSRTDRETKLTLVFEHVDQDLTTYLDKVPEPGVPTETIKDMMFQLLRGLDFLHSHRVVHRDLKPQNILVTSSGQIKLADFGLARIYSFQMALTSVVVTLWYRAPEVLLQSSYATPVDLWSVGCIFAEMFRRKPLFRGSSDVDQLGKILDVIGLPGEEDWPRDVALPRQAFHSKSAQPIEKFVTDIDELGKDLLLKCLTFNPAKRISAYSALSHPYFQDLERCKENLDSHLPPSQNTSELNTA
T1 sequence (P24385 whole entry partner): as the sequence (P24385 whole entry partner) above

Compound	IC50 [1] [µM]	IC50 [2] [µM]	IC50 [3] [µM]	IC50 [4] [µM]
CN(C)CCN1CCc2nc(Nc3ncc4cc(C#N)c(=O)n(C5CCCC5)c4n3)ccc2C1 [Compound No. 64, 8-cyclopentyl-2-((6-(2-(dimethylamino)ethyl)-5,6,7,8-tetrahydro-1,6-naphthyridin-2-yl)amino)-7-oxo-7,8-dihydropyrido[2,3-d]pyrimidine-6-carbonitrile]	0.032	> 0.2	3.59	4.75
CN(C)CCN1CCC(Nc2ncc3cc(C#N)c(=O)n(C4CCCC4)c3n2)CC1 [Compound No. 67, 8-cyclopentyl-2-((1-(2-(dimethylamino)ethyl)piperidin-4-yl)amino)-7-oxo-7,8-dihydropyrido[2,3-d]pyrimidine-6-carbonitrile]	> 0.2	> 0.14	1.64	4.45
CN(C)CCN1CCc2ccc(Nc3ncc4cc(C#N)c(=O)n(C5CCCC5)c4n3)cc2C1=O [Compound No. 68, 8-cyclopentyl-2-((2-(2-(dimethylamino)ethyl)-1-oxo-1,2,3,4-tetrahydroisoquinolin-7-yl)amino)-7-oxo-7,8-dihydropyrido[2,3-d]pyrimidine-6-carbonitrile]	> 0.2	> 0.2	> 10	> 10
CN(C)CCN1CCC(n2ccc(Nc3ncc4cc(C#N)c(=O)n(C5CCCC5)c4n3)cc2=O)CC1 [Compound No. 73, 8-cyclopentyl-2-((1-(1-(2-(dimethylamino)ethyl)piperidin-4-yl)-2-oxo-1,2-dihydropyridin-4-yl)amino)-7-oxo-7,8-dihydropyrido[2,3-d]pyrimidine-6-carbonitrile]	0.028	0.015	1.59	> 8.43
N#Cc1cc2cnc(Nc3cnc4c(c3)CNCC4)nc2n(C2CCCC2)c1=O [Compound No. 77, 8-cyclopentyl-7-oxo-2-((5,6,7,8-tetrahydro-1,6-naphthyridin-3-yl)amino)-7,8-dihydropyrido[2,3-d]pyrimidine-6-carbonitrile]	0.043	0.132	0.452	4.55
N#Cc1cc2cnc(Nc3ccc4c(c3)C(=O)NCCC4)nc2n(C2CCCC2)c1=O [Compound No. 79, 8-cyclopentyl-7-oxo-2-((1-oxo-2,3,4,5-tetrahydro-1H-benzo[c]azepin-8-yl)amino)-7,8-dihydropyrido [2,3-d]pyrimidine-6-carbonitrile]	0.038	> 0.147	1.84	4.05
CC(C)Cn1c(=O)c(C#N)cc2cnc(Nc3ccc4c(c3)CCNC4)nc21 [Compound No. 81, 8-isobutyl-7-oxo-2-((1,2,3,4-tetrahydroisoquinolin-6-yl)amino)-7,8-dihydropyrido[2,3-d]pyrimidine-6-carbonitrile]	0.137	> 0.2	0.641	0.585
N#Cc1cc2cnc(Nc3ccc4c(c3)CCCNC4=O)nc2n(C2CCCC2)c1=O [Compound No. 82, 8-cyclopentyl-7-oxo-2-((1-oxo-2,3,4,5-tetrahydro-1H-benzo[c]azepin-7-yl)amino)-7,8-dihydropyrido[2,3-d]pyrimidine-6-carbonitrile]	0.131	> 0.2	0.305	0.25
N#Cc1cc2cnc(Nc3ccc4c(c3)CCCC(=O)N4)nc2n(C2CCCC2)c1=O [Compound No. 83, 8-cyclopentyl-7-oxo-2-((2-oxo-2,3,4,5-tetrahydro-1H-benzo[b]azepin-7-yl)amino)-7,8-dihydropyrido[2,3-d]pyrimidine-6-carbonitrile]	0.024	0.084	1.06	0.82
N#Cc1cc2cnc(Nc3cc4c(cc3F)CNCC4)nc2n(C2CCCC2)c1=O [Compound No. 84, 8-cyclopentyl-2-((7-fluoro-1,2,3,4-tetrahydroisoquinolin-6-yl)amino)-7-oxo-7,8-dihydropyrido[2,3-d]pyrimidine-6-carbonitrile]	0.116	> 0.2	2	2.52
N#Cc1cc2cnc(Nc3ccc4c(c3)CCNC4)nc2n(CC2CC2)c1=O [Compound No. 85, 8-(cyclopropylmethyl)-7-oxo-2-((1,2,3,4-tetrahydroisoquinolin-6-yl)amino)-7,8-dihydropyrido[2,3-d]pyrimidine-6-carbonitrile]	> 0.19	> 0.2	0.723	0.725

The next molecules have a lower IC50 [1] than those just listed; values first:

IC50 [1] [µM]	IC50 [2] [µM]	IC50 [3] [µM]	IC50 [4] [µM]	Compound
0.004	0.014	0.594	1.26	CN(C)CCN1CCc2ccc(Nc3ncc4cc(C#N)c(=O)n(C5CCCC5)c4n3)cc2C1 [Compound No. 62, 8-cyclopentyl-2-((2-(2-(dimethylamino)ethyl)-1,2,3,4-tetrahydroisoquinolin-7-yl)amino)-7-oxo-7,8-dihydropyrido[2,3-d]pyrimidine-6-carbonitrile]
0.005		0.793	1.65	CC(=O)N1CCc2cc(Nc3ncc4cc(C#N)c(=O)n(C5CCCC5)c4n3)ccc2C1 [Compound No. 71, 2-((2-acetyl-1,2,3,4-tetrahydroisoquinolin-6-yl)amino)-8-cyclopentyl-7-oxo-7,8-dihydropyrido[2,3-d]pyrimidine-6-carbonitrile]
0.001		0.33	0.985	CN(C)CCCN1CCc2cc(Nc3ncc4cc(C#N)c(=O)n(C5CCCC5)c4n3)ccc2C1 [Compound No. 72, 8-cyclopentyl-2-((2-(3-(dimethylamino)propyl)-1,2,3,4-tetrahydroisoquinolin-6-yl)amino)-7-oxo-7,8-dihydropyrido[2,3-d]pyrimidine-6-carbonitrile]
0.0055	0.007	0.598	1.05	COCCN1CCc2cc(Nc3ncc4cc(C#N)c(=O)n(C5CCCC5)c4n3)ccc2C1 [Compound No. 75, 8-cyclopentyl-2-((2-(2-methoxyethyl)-1,2,3,4-tetrahydroisoquinolin-6-yl)amino)-7-oxo-7,8-dihydropyrido[2,3-d]pyrimidine-6-carbonitrile]
0.006	0.0095	0.793	0.66	CN(C)CCN1Cc2cc(Nc3ncc4cc(C#N)c(=O)n(C5CCCC5)c4n3)ccc2C(C)(C)C1 [Compound No. 76, 8-cyclopentyl-2-((2-(2-(dimethylamino)ethyl)-4,4-dimethyl-1,2,3,4-tetrahydroisoquinolin-7-yl)amino)-7-oxo-7,8-dihydropyrido[2,3-d]pyrimidine-6-carbonitrile]
0.015	0.033	0.751	1.67	N#Cc1cc2cnc(Nc3ccc4c(c3)CNCCC4)nc2n(C2CCCC2)c1=O [Compound No. 78, 8-cyclopentyl-7-oxo-2-((2,3,4,5-tetrahydro-1H-benzo[c]azepin-8-yl)amino)-7,8-dihydropyrido[2,3-d]pyrimidine-6-carbonitrile]
0.009	0.011		> 5.26	CC1(C)CCCC1n1c(=O)c(C#N)cc2cnc(NC3CCN(S(C)(=O)=O)CC3)nc21 (stereo not drawn) [Compound No. 388, 8-(2,2-dimethylcyclopentyl)-2-(1-(methylsulfonyl)piperidin-4-ylamino)-7-oxo-7,8-dihydropyrido[2,3-d]pyrimidine-6-carbonitrile]
0.011	0.0075		4.22	Cc1c(C#N)c(=O)n(C2CCCC2)c2nc(NC3CCN(S(C)(=O)=O)CC3)ncc12 [Compound No. 389, 8-cyclopentyl-5-methyl-2-(1-(methylsulfonyl)piperidin-4-ylamino)-7-oxo-7,8-dihydropyrido[2,3-d]pyrimidine-6-carbonitrile]
